The text below walks through data of patent publication US9546153B2, “Bicyclic heterocycle substituted pyridyl compounds useful as kinase modulators” (BRISTOL-MYERS SQUIBB COMPANY, priority 2012, dated 2017).

The target of one assay is IRAK4 (Homo sapiens (Human), UniProt Q9NWZ3). Put plainly: IRAK4 Inhibition Assay. The format is biochemical. The note with it: ATP 500 μM; IRAK4 0.6 nM; 60 min at room temperature. On the procedure:
The assays were performed in U-bottom 384-well plates. […] The reaction was initiated by the combination of IRAK4 with substrates and test compounds. The reaction was incubated at room temperature for 60 min. and terminated by adding 45 μL of 35 mM EDTA to each sample. The reaction mixture was analyzed on the Caliper LABCHIP® 3000 (Caliper, Hopkinton, Mass.) by electrophoretic separation of the fluorescent substrate and phosphorylated product.

Assay [1] has as its system TLR2 induced IL-6 in peripheral blood mononuclear cells (PBMCs). Put plainly: PBMC TLR2 Induced IL-6 Assay. It is filed as cell-based, human. The note with it: human PBMCs, 10 μg/ml lipoteichoic acid for 5 hours, IL-6 by ELISA; for IC50: value without asterisk, read-out: Cell IC50. The essentials: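 IL-6 ELISA of supernatants after a 5 h challenge with the TLR2 agonist lipoteichoic acid (10 μg/ml). Before stimulation, human PBMCs (250000 cells/well; RPMI, 10% heat-inactivated FCS) received compound for 30 min at 37° C. Values given as IC50 or EC50.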

Structures are written as SMILES. Read-outs that look alike come from different tables or passages of the source.

Chain of IRAK4 (Q9NWZ3 whole entry, species assumed): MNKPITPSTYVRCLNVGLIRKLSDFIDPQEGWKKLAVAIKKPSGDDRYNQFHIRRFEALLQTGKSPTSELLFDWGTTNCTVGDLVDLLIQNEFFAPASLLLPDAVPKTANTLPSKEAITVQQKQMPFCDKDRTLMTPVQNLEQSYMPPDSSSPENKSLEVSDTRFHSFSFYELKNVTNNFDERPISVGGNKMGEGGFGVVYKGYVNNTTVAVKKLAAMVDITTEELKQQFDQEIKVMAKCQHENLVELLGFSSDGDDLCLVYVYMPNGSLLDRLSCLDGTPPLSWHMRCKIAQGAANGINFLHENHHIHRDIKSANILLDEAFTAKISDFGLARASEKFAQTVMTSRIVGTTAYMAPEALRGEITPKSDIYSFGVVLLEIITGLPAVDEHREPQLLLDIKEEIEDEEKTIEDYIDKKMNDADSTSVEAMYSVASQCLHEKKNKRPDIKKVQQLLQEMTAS

Turning to `Cc1ccccc1CNc1cc(Nc2ccc3ncsc3c2)ncc1C(=O)NC[C@@H](F)C(C)(C)O` [Example 166], the IC50 at IRAK4 stood at 8.4 nM; in assay [1] (Homo sapiens, PBMC, 5 h) it was 266 nM.
Taken in the same sequence, the figures for `CC1(O)CCC(NC(=O)c2cnc(Nc3ccc4ncsc4c3)cc2NC2CC2)CC1` (centres unmarked) [Example 169, 6-(benzo[d]thiazol-6-ylamino)-4-(cyclopropylamino)-N-(4-hydroxy-4-methylcyclohexyl)nicotinamide] were 2.8 nM and 480 nM.
In the same order, the values of `CC(C)(O)[C@H](F)CNC(=O)c1cnc(Nc2ccc3ncsc3c2)cc1NC1CCC(O)C1` (some centres unmarked) [Example 37] are 3.9 nM and 297 nM.
Taken in the same sequence, the figures for `CC(C)Nc1cc(Nc2ccc3ncsc3c2)ncc1C(=O)NC[C@@H](F)C(O)C1CC1` (some centres unmarked) [Example 15] were 5.2 nM and 541 nM.
As for `CC(C)(O)[C@H](F)CNC(=O)c1cnc(Nc2ccc3nccn3n2)cc1NC1CCC1` [Example 272], the IC50 at IRAK4 came to 4.8 nM; in assay [1] (Homo sapiens, PBMC, 5 h), 175 nM.
In the same order, the values of `CC(C)Nc1cc(Nc2nc3ccnn3cc2F)ncc1C(=O)NC[C@@H](F)C(C)(C)O` [Example 367, (R)—N-(2-fluoro-3-hydroxy-3-methylbutyl)-6-((6-fluoropyrazolo[1,5-a]pyrimidin-5-yl)amino)-4-(isopropylamino)nicotinamide] are 4.8 nM and 569 nM.
Taken in the same sequence, the figures for `CCC(O)(CC)[C@H](F)CNC(=O)c1cnc(Nc2ccc3ncsc3c2)cc1NCC(C)(C)F` [Example 317] were 1.7 nM and 374 nM.
In the same order, the values of `CC(C)(O)[C@H](F)CNC(=O)c1cnc(Nc2ccc3ncsc3c2)cc1Nc1ccc(S(C)(=O)=O)cc1` [Example 382] are 6.3 nM and 491 nM.
Consider `CC(C)(O)[C@H](F)CNC(=O)c1cnc(Nc2nc3ccnn3cc2F)cc1NC1CCC(F)C1` (some centres unmarked) [Example 410], for which the IC50 at IRAK4 is 3.2 nM; in assay [1] it was 340 nM.
Turning to `COc1ccc(CNc2cc(Nc3ccc4ncsc4c3)ncc2C(=O)NC[C@@H](F)C(C)(C)O)cc1` [Example 168], the IC50 on IRAK4 was determined as 13.4 nM; in assay [1] (Homo sapiens, PBMC, 5 h), 565 nM.
Taken in the same sequence, the figures for `CC(C)(O)[C@H](F)CNC(=O)c1cnc(Nc2ccn3nccc3c2)cc1NC1CCC(F)C1` (some centres unmarked) [Example 287] were 6.2 nM and 674 nM.
Taken in the same sequence, the figures for `CC(C)(O)[C@H](F)CNC(=O)c1cnc(Nc2ccc3ncoc3c2)cc1N[C@@H]1CCCC1F` (some centres unmarked) [Example 354] were 4.4 nM and 402 nM.
In the same order, the values of `CC(C)Nc1cc(Nc2ccc3ncsc3c2)ncc1C(=O)N[C@H]1CC[C@H](C(N)=O)CC1` [Example 228] are 2.4 nM and 392 nM.
For `CC(C)(O)[C@H](F)CNC(=O)c1cnc(Nc2ncc3ncccc3n2)cc1NC1CCC(F)C1` (some centres unmarked) [Example 447], the IC50 stood at 2 nM on IRAK4 and 1250 nM in assay [1].
Taken in the same sequence, the figures for `CC(C)(O)[C@H](F)CNC(=O)c1cnc(Nc2ccc3ncsc3c2)cc1N[C@H]1CCC(CCO)C1` (some centres unmarked) [Example 67] were 6.8 nM and 248 nM.
On to `CC(=O)NC12CCC(Nc3cc(Nc4ccc5ncsc5c4)ncc3C(=O)NC[C@@H](F)C(C)(C)O)(CC1)C2` [Example 139], for which the IC50 amounted to 3.1 nM at IRAK4 and 310 nM in assay [1] (Homo sapiens, PBMC, 5 h).
Turning to `CC(C)(O)[C@H](F)CNC(=O)c1cnc(Nc2ccn3ncc(F)c3c2)cc1NC1CC(F)(F)C1` [Example 420], the IC50 was 3.6 nM on IRAK4 and 184 nM in assay [1] (Homo sapiens, PBMC, 5 h).
Consider `CC(C)(O)[C@H](F)CNC(=O)c1cnc(Nc2ccn3nccc3n2)cc1NC1CCC(F)C1` (some centres unmarked) [Example 254], for which the concentration for half-maximal inhibition (IC50) on IRAK4 was 2.5 nM; in assay [1], 131 nM.
Take `Cc1cc(O)ccc1Nc1cc(Nc2ccc3ncsc3c2)ncc1C(=O)NC[C@@H](F)C(C)(C)O` [Example 86]: the IC50 on IRAK4 came to 11.4 nM; in assay [1] (Homo sapiens, PBMC, 5 h), 281 nM.
Taken in the same sequence, the figures for `CC(C)Nc1cc(Nc2ccc3ncsc3c2)ncc1C(=O)N[C@H]1CC[C@H](C(=O)NCC(C)(C)O)CC1` [Example 196] were 3.5 nM and 325 nM.
On to `CC(C)Nc1cc(Nc2ccc3ncsc3c2)ncc1C(=O)NC1CCC(O)(c2ccnn2C)CC1` (centres unmarked) [Example 524], for which the IC50 on IRAK4 was 3.7 nM. For the same compound, in assay [1] (Homo sapiens, PBMC, 5 h, EC50 determinations are indicated with an asterisk, read-out: Cell EC50 (asterisk)), the EC50 stood at 75 nM.
Consider `CCNc1cc(Nc2nc3scnc3cc2F)ncc1C(=O)NC[C@@H](F)C(C)(C)O` [Example 468], for which the IC50 on IRAK4 amounted to 4.1 nM; in assay [1] (Homo sapiens, PBMC, 5 h), 246 nM.
`CC(C)(O)[C@H](F)CNC(=O)c1cnc(Nc2ccc3ncsc3c2)cc1NC12CCC(NC(=O)c3ccccn3)(CC1)C2` [Example 400]: the IC50 was 7.5 nM at IRAK4 and 119 nM in assay [1] (Homo sapiens, PBMC, 5 h).
In the same order, the values of `CC(C)(O)[C@H](F)CNC(=O)c1cnc(Nc2cc3scnc3cn2)cc1NC1CC1` [Example 315] are 3.9 nM and 426 nM.
Take `CC(C)Nc1cc(Nc2ccc3ncsc3c2)ncc1C(=O)N[C@H]1CC[C@H](C(=O)NC2(C#N)CC2)CC1` [Example 213]: the IC50 was 3.1 nM on IRAK4 and 403 nM in assay [1] (Homo sapiens, PBMC, 5 h).
In the case of `CC(C)(O)[C@H](F)CNC(=O)c1cnc(Nc2ccc3ncsc3n2)cc1NC1CCOCC1F` (some centres unmarked) [Example 417], the figures for the IC50 (on IRAK4; in assay [1]) were 10.9 nM and 72 nM, respectively.
In the same order, the values of `CC(C)Nc1cc(Nc2ccc3ncsc3c2)ncc1C(=O)NC1CCCC(CO)C1` (centres unmarked) [Example 172] are 6.7 nM and 300 nM.
In the same order, the values of `CC(C)(O)[C@H](F)CNC(=O)c1cnc(Nc2ccc3ncsc3c2)cc1NC1CCC(F)C1` (single isomer, unassigned) [Example 363, 6-(benzo[d]thiazol-6-ylamino)-N-(2-fluoro-3-hydroxy-3-methylbutyl)-4-(3-fluorocyclopentylamino)nicotinamide] are 2.5 nM and 87 nM.
Take `CC1CCCC1Nc1cc(Nc2ccc3ncsc3c2)ncc1C(=O)NC[C@@H](F)C(C)(C)O` (some centres unmarked) [Example 104]: the IC50 at IRAK4 was found to be 2.5 nM; in assay [1] (Homo sapiens, PBMC, 5 h) it was 350 nM.
Taken in the same sequence, the figures for `CC(C)(O)[C@H](F)CNC(=O)c1cnc(Nc2ccc3ncsc3c2)cc1NC12CCC(NS(C)(=O)=O)(CC1)C2` [Example 396] were 2.7 nM and 351 nM.
Taken in the same sequence, the figures for `CC(C)(F)CNc1cc(Nc2cc3scnc3cc2F)ncc1C(=O)NC[C@@H](F)C(C)(C)O` [Example 454] were 2.8 nM and 38 nM.
Consider `CC(C)(O)[C@H](F)CNC(=O)c1cnc(Nc2ccc3nccnc3c2)cc1NC1CCCC1(F)F` (some centres unmarked) [Example 359], for which the IC50 at IRAK4 was 4.6 nM; in assay [1] (Homo sapiens, PBMC, 5 h) it was 188 nM.
As for `CC(C)Nc1cc(Nc2ccc3ncsc3c2)ncc1C(=O)NC[C@@H](F)C(O)C1CC1` (some centres unmarked) [Example 16], the IC50 at IRAK4 turned out to be 5.2 nM; in assay [1] it was 595 nM.
For the compound `CC(C)(O)[C@H](F)CNC(=O)c1cnc(Nc2cc3scnc3cc2F)cc1NC1CCCOC1` (some centres unmarked) [Example 518], the IC50 on IRAK4 was determined as 3.8 nM; in assay [1], 1840 nM.
Take `CC(C)(O)[C@H](F)CNC(=O)c1cnc(Nc2ccn3nccc3c2)cc1NCCC1CC1` [Example 292]: the IC50 on IRAK4 is 7 nM; in assay [1] (Homo sapiens, PBMC, 5 h) it was 427 nM.
Taken in the same sequence, the figures for `CC(=O)N[C@@H](C)CCNC(=O)c1cnc(Nc2ccc3ncsc3c2)cc1NC(C)C` [Example 178] were 13.8 nM and 405 nM.
Turning to `CC(C)(O)[C@H](F)CNC(=O)c1cnc(Nc2ccc3nccnc3c2)cc1NC1CCCOC1` (some centres unmarked) [Example 71], the IC50 amounted to 13.8 nM at IRAK4 and 415 nM in assay [1] (Homo sapiens, PBMC, 5 h).
In the same order, the values of `CC(C)(O)[C@H](F)CNC(=O)c1cnc(Nc2ccc3ncsc3c2)cc1Nc1cccc(CCO)c1` [Example 59] are 6 nM and 99 nM.
For the compound `CC(C)(O)[C@H](F)CNC(=O)c1cnc(Nc2ccn3nccc3n2)cc1NC1CC2CC2C1(F)F` (some centres unmarked) [Example 452], the IC50 at IRAK4 was found to be 2.5 nM; in assay [1] (Homo sapiens, PBMC, 5 h), 239 nM.
Taken in the same sequence, the figures for `CC(C)CNc1cc(Nc2ccc3ncsc3c2)ncc1C(=O)NC[C@@H](F)C(C)(C)O` [Example 162] were 3.6 nM and 48 nM.
For `CNC(=O)c1cnc(Nc2ccc3ncsc3c2)cc1NC1C2CC3CC1CC(O)(C3)C2` (single isomer, unassigned) [Example 146], the IC50 stood at 53.9 nM at IRAK4 and 550 nM in assay [1] (Homo sapiens, PBMC, 5 h).
In the same order, the values of `CC(C)Nc1cc(Nc2ccc3ncsc3c2)ncc1C(=O)NC1CCc2nc(N)sc2C1` (centres unmarked) [Example 521] are 8.5 nM and 2330 nM.
Take `CC(C)Nc1cc(Nc2ccc3ncsc3c2)ncc1C(=O)NC[C@@H](F)C(C)(O)C(F)(F)F` (some centres unmarked) [Example 18]: the half-inhibitory concentration (IC50) at IRAK4 was 6.9 nM; in assay [1], 269 nM.
In the same order, the values of `CC(C)Nc1cc(Nc2ccc3ncsc3c2)ncc1C(=O)NC[C@@H](F)C(O)C(C)C` (some centres unmarked) [Example 14] are 4.3 nM and 461 nM.
Taken in the same sequence, the figures for `CNC(=O)c1cnc(Nc2ccc3ncsc3c2)cc1NC1C2CC3CC1CC(O)(C3)C2` (single isomer, unassigned) [Example 148] were 24.5 nM and 456 nM.
For `CC(C)(O)[C@H](F)CNC(=O)c1cnc(Nc2ccc3nsnc3c2)cc1N[C@@H](c1ccccc1)[C@H](O)CO` [Example 102], the IC50 was determined as 2.9 nM on IRAK4 and 312 nM in assay [1] (Homo sapiens, PBMC, 5 h).
